Measured values taken from US20240209028A1, “CNP COMPOUNDS” (priority 2022, published 2024).
Starred links: 1 amine or outer side, 2 acyl side, 3 side chain; linkers in the order of their positions; H or OH if unused. Positions of bridges follow the written chain, without caps; N, C: chain ends. Residues, ends and D or L forms follow the SMILES beside them. *: point of attachment. C18 diacid = O=C(O)CCCCCCCCCCCCCCCCC(=O)*; γGlu = O=C(O)[C@H](CCC(=O)[*:2])N[*:1]; AEEA = NCCOCCOCC(=O)O

Test: Thioflavin T (ThT) assay: lagtime and peptide recovery
Type: physicochemical
Conditions: ThT assay, pH 6.5, 37° C.; assay terminated after 45 hours
Excerpt: The ThT assay was used to evaluate physical stability of the CNP compounds and their suitability for liquid formulation. Low physical stability of peptides may lead to amyloid fibril formation, which is observed as well-ordered, thread-like macromolecular structures in the sample eventually resulting in gel formation. This has traditionally been tested by visual inspection of the sample. However, that kind of measurement is very subjective and depending on the observer. Therefore, the application of a small molecule indicator probe is much more advantageous. Thioflavin T (ThT) is such a probe and has a distinct fluorescence signature when binding to fibrils [Naiki et al. (1989) Anal. Biochem. 177, 244-249; LeVine (1999) Methods. Enzymol. […], 274-284].
Procedure: Thioflavin T was added to the supernatant samples from Example 5 (pH 4.0 and 6.5) using an aqueous ThT stock solution to a final concentration of about 1 μM in the samples. Sample aliquots of 150 μL were placed in a 96 well microtiter plate (Packard OptiPlate™-96, white polystyrene). Usually, two to three replicas of each sample were applied to the plate. The plate was sealed and placed in a fluorescence plate reader (Fluoroskan Ascent FL) and incubated at 37° C. with orbital shaking (960 rpm; 1 mm amplitude). Fluorescence measurements were performed every 20 minutes using excitation through a 444 nm filter and measurement of emission through a 485 nm filter. Between each measurement, the plate was shaken and heated as described above and the assay was terminated after 45 hours. Fluorescence measurements for each microtiter plate well were plotted against time and the lag-time (time until an increase in ThT fluorescence was observed) was estimated.
To assess loss of dissolved peptide following 45h incubation, peptide recovery was measured as the ratio between total peak area after incubation vs. before incubation using the RP-UPLC method described below.
Measurement of LagTime and Peptide recovery % using RP-UPLC: RP-UPLC was conducted using an Acquity UPLC BEH C18 1.7 μm (2.1×30 mm) Waters column (Eluent A: 0.1% v/v % TFA in water; Eluent B: 0.1% v/v TFA in acetonitrile/water 4:1) with gradient elution (0 min: 95% A; 2 min: 20% A; 2.3 min: 20% A; 2.4 min: 95% A; 9 min: 95% A) in a flow rate of 0.9 mL/min and a column temperature of 30° C. UV-detection at 215 nm was used to assess the total peptide area.
Samples at pH 4.0 were prepared as described in Example 5 and subjected to the ThT assay as described above.
Samples at pH 6.5 were prepared as described in Example 5 and subjected to the ThT assay as described above.

Row | Structure (SMILES) | LagTime (h) at pH 6.5
1 | CC[C@H](C)[C@@H]1NC(=O)[C@H](CCCNC(=N)N)NC(=O)[C@H](CC(=O)O)NC(=O)[C@H](CC(C)C)NC(=O)[C@@H]2CCCN2C(=O)[C@H](CC(C)C)NC(=O)CNC(=O)[C@H](Cc2ccccc2)NC(=O)[C@@H](NC(=O)CNC(=O)[C@H](CCC(N)=O)NC(=O)[C@H](CO)NC(=O)[C@H](CC(C)C)NC(=O)CNC(=O)[C@H](CCCCN)NC(=O)[C@H](CCCCN)NC(=O)[C@H](CCC(N)=O)NC(=O)[C@H](C)NC(=O)CNC(=O)[C@H](CCCCN)NC(=O)[C@H](Cc2ccc(O)cc2)NC(=O)[C@H](CCCCN)NC(=O)[C@H](CCCNC(=N)N)NC(=O)[C@H](C)NC(=O)COCCOCCNC(=O)COCCOCCNC(=O)CC[C@H](NC(=O)CC[C@H](NC(=O)CC[C@H](NC(=O)CC[C@H](NC(=O)CC[C@H](NC(=O)CCCCCCCCCCCCCCCCC(=O)O)C(=O)O)C(=O)O)C(=O)O)C(=O)O)C(=O)O)CSSC[C@@H](C(=O)O)NC(=O)CNC(=O)[C@H](CC(C)C)NC(=O)CNC(=O)[C@H](CO)NC(=O)[C@H](CC(C)C)NC(=O)[C@H](CO)NC(=O)CNC1=O [compound 1453] ({C18 diacid-γGlu-γGlu-γGlu-γGlu-γGlu-AEEA-AEEA}-ARKYKGAQKKGLSQGCFGLPLDRIGSLSGLGC-OH; disulfide 16-32) | 45 h
2 | CC[C@H](C)[C@@H]1NC(=O)[C@H](CCCNC(=N)N)NC(=O)[C@H](CC(=O)O)NC(=O)[C@H](CC(C)C)NC(=O)[C@@H]2CCCN2C(=O)[C@H](CC(C)C)NC(=O)CNC(=O)[C@H](Cc2ccccc2)NC(=O)[C@@H](NC(=O)CNC(=O)[C@H](CCC(N)=O)NC(=O)[C@H](CO)NC(=O)[C@H](CO)NC(=O)CNC(=O)[C@H](CCCCN)NC(=O)[C@H](CCCCN)NC(=O)[C@H](CCC(N)=O)NC(=O)[C@H](C)NC(=O)CNC(=O)[C@@H]2CCCN2C(=O)[C@H](C)NC(=O)[C@H](CCC(N)=O)NC(=O)CNC(=O)[C@@H]2CCCN2C(=O)[C@H](C)NC(=O)[C@H](CCC(N)=O)NC(=O)CNC(=O)[C@@H]2CCCN2C(=O)[C@H](C)NC(=O)[C@H](CCC(N)=O)NC(=O)CNC(=O)COCCOCCNC(=O)COCCOCCNC(=O)CC[C@H](NC(=O)CCCCCCCCCCCCCCCCC(=O)O)C(=O)O)CSSC[C@@H](C(=O)O)NC(=O)CNC(=O)[C@H](CC(C)C)NC(=O)CNC(=O)[C@H](CO)NC(=O)[C@H](CC(C)C)NC(=O)[C@H](CO)NC(=O)CNC1=O [compound 1457] ({C18 diacid-γGlu-AEEA-AEEA}-GQAPGQAPGQAPGAQKKGSSQGCFGLPLDRIGSLSGLGC-OH; disulfide 23-39) | 45 h
3 | CC[C@H](C)[C@@H]1NC(=O)[C@H](CCCNC(=N)N)NC(=O)[C@H](CCC(=O)O)NC(=O)[C@H](CC(C)C)NC(=O)[C@@H]2CCCN2C(=O)[C@H](CC(C)C)NC(=O)CNC(=O)[C@H](Cc2ccccc2)NC(=O)[C@@H](NC(=O)CNC(=O)[C@H](CCC(N)=O)NC(=O)[C@H](CO)NC(=O)[C@H](CC(C)C)NC(=O)CNC(=O)[C@H](CCCCN)NC(=O)[C@H](CCCCN)NC(=O)[C@H](CCC(N)=O)NC(=O)[C@H](C)NC(=O)CNC(=O)[C@H](CCCCN)NC(=O)[C@H](Cc2ccc(O)cc2)NC(=O)[C@H](CCCCN)NC(=O)[C@H](CCCNC(=N)N)NC(=O)[C@H](C)NC(=O)COCCOCCNC(=O)COCCOCCNC(=O)COCCOCCNC(=O)COCCOCCNC(=O)CC[C@H](NC(=O)CC[C@H](NC(=O)CC[C@H](NC(=O)CC[C@H](NC(=O)CC[C@H](NC(=O)CCCCCCCCCCCCCCCCC(=O)O)C(=O)O)C(=O)O)C(=O)O)C(=O)O)C(=O)O)CSSC[C@@H](C(=O)O)NC(=O)CNC(=O)[C@H](CC(C)C)NC(=O)CNC(=O)[C@H](CO)NC(=O)[C@H](CC(C)C)NC(=O)[C@H](CO)NC(=O)CNC1=O [compound 1477] ({C18 diacid-γGlu-γGlu-γGlu-γGlu-γGlu-AEEA-AEEA-AEEA-AEEA}-ARKYKGAQKKGLSQGCFGLPLERIGSLSGLGC-OH; disulfide 16-32) | 23 h

Same assay, conditions: ThT, 37° C., shaking; assay terminated after 45 hours

Row | Structure (SMILES) | LagTime (h) at pH 4.0
4 | CC[C@H](C)[C@@H]1NC(=O)[C@H](CCCNC(=N)N)NC(=O)[C@H](CC(=O)O)NC(=O)[C@H](CC(C)C)NC(=O)[C@@H]2CCCN2C(=O)[C@H](CC(C)C)NC(=O)CNC(=O)[C@H](Cc2ccccc2)NC(=O)[C@@H](NC(=O)CNC(=O)[C@H](CCCCN)NC(=O)[C@H](CO)NC(=O)[C@H](CC(C)C)NC(=O)CNC(=O)[C@H](CCCCN)NC(=O)[C@H](CCCCN)NC(=O)[C@H](CCC(N)=O)NC(=O)[C@H](C)NC(=O)CNC(=O)[C@H](CCCCN)NC(=O)[C@H](Cc2ccc(O)cc2)NC(=O)[C@H](CCCCN)NC(=O)[C@H](CCCNC(=N)N)NC(=O)[C@H](C)NC(=O)COCCOCCNC(=O)COCCOCCNC(=O)CC[C@H](NC(=O)CC[C@H](NC(=O)CC[C@H](NC(=O)CC[C@H](NC(=O)CC[C@H](NC(=O)CCCCCCCCCCCCCCCCC(=O)O)C(=O)O)C(=O)O)C(=O)O)C(=O)O)C(=O)O)CSSC[C@@H](C(=O)O)NC(=O)CNC(=O)[C@H](CC(C)C)NC(=O)CNC(=O)[C@H](CO)NC(=O)[C@H](CC(C)C)NC(=O)[C@H](CO)NC(=O)CNC1=O [compound 1470] ({C18 diacid-γGlu-γGlu-γGlu-γGlu-γGlu-AEEA-AEEA}-ARKYKGAQKKGLSKGCFGLPLDRIGSLSGLGC-OH; disulfide 16-32) | 45 h
5 | CC[C@H](C)[C@@H]1NC(=O)[C@H](CCCNC(=N)N)NC(=O)[C@H](CC(=O)O)NC(=O)[C@H](CC(C)C)NC(=O)[C@@H]2CCCN2C(=O)[C@H](CC(C)C)NC(=O)CNC(=O)[C@H](Cc2ccccc2)NC(=O)[C@@H](NC(=O)CNC(=O)[C@H](CO)NC(=O)[C@H](CO)NC(=O)[C@H](CC(C)C)NC(=O)CNC(=O)[C@H](CCCCN)NC(=O)[C@H](CCCCN)NC(=O)[C@H](CCC(N)=O)NC(=O)[C@H](C)NC(=O)CNC(=O)[C@H](CCCCN)NC(=O)[C@H](Cc2ccc(O)cc2)NC(=O)[C@H](CCCCN)NC(=O)[C@H](CCCNC(=N)N)NC(=O)[C@H](C)NC(=O)[C@H](CCC(N)=O)NC(=O)[C@@H]2CCCN2C(=O)[C@H](Cc2c[nH]cn2)NC(=O)[C@H](CCC(=O)O)NC(=O)[C@H](CCC(N)=O)NC(=O)COCCOCCNC(=O)COCCOCCNC(=O)CC[C@H](NC(=O)CC[C@H](NC(=O)CC[C@H](NC(=O)CC[C@H](NC(=O)CCCCCCCCCCCCCCCCC(=O)O)C(=O)O)C(=O)O)C(=O)O)C(=O)O)CSSC[C@@H](C(=O)O)NC(=O)CNC(=O)[C@H](CC(C)C)NC(=O)CNC(=O)[C@H](CO)NC(=O)[C@H](CC(C)C)NC(=O)[C@H](CO)NC(=O)CNC1=O [compound 1473] ({C18 diacid-γGlu-γGlu-γGlu-γGlu-AEEA-AEEA}-QEHPQARKYKGAQKKGLSSGCFGLPLDRIGSLSGLGC-OH; disulfide 21-37; C-terminus assumed) | 45 h
6 | CC[C@H](C)[C@@H]1NC(=O)[C@H](CCCNC(=N)N)NC(=O)[C@H](CC(=O)O)NC(=O)[C@H](CC(C)C)NC(=O)[C@@H]2CCCN2C(=O)[C@H](CC(C)C)NC(=O)CNC(=O)[C@H](Cc2ccccc2)NC(=O)[C@@H](NC(=O)CNC(=O)[C@H](CCCCN)NC(=O)[C@H](CO)NC(=O)[C@H](CC(C)C)NC(=O)CNC(=O)[C@H](CCCCN)NC(=O)[C@H](CCCCN)NC(=O)[C@H](CCC(N)=O)NC(=O)[C@H](C)NC(=O)CNC(=O)[C@H](CCCCN)NC(=O)[C@H](Cc2ccc(O)cc2)NC(=O)[C@H](CCCCN)NC(=O)[C@H](CCCNC(=N)N)NC(=O)[C@H](C)NC(=O)[C@H](CCC(N)=O)NC(=O)[C@@H]2CCCN2C(=O)[C@H](Cc2c[nH]cn2)NC(=O)[C@H](CCC(=O)O)NC(=O)[C@H](CCC(N)=O)NC(=O)COCCOCCNC(=O)COCCOCCNC(=O)CC[C@H](NC(=O)CC[C@H](NC(=O)CC[C@H](NC(=O)CC[C@H](NC(=O)CC[C@H](NC(=O)CCCCCCCCCCCCCCCCC(=O)O)C(=O)O)C(=O)O)C(=O)O)C(=O)O)C(=O)O)CSSC[C@@H](C(=O)O)NC(=O)CNC(=O)[C@H](CC(C)C)NC(=O)CNC(=O)[C@H](CO)NC(=O)[C@H](CC(C)C)NC(=O)[C@H](CO)NC(=O)CNC1=O [compound 1474] ({C18 diacid-γGlu-γGlu-γGlu-γGlu-γGlu-AEEA-AEEA}-QEHPQARKYKGAQKKGLSKGCFGLPLDRIGSLSGLGC-OH; disulfide 21-37; C-terminus assumed) | 45 h
